# Marks after values point to notes of the source that are not given here.
# Columns and labels:
# [1] = test system: moderate-to-severe symptomatic knee OA subjects; experiment: Phase 1 clinical study: safety and adverse events; type: in vivo, human; details: for AE(s) Reported - All / AE(s) Reported - Target knee, Arthralgia / AE(s) Reported - Target knee, Injection site bruising / AE(s) Reported - Target knee, Injection site pain / AE(s) Reported - Target knee, Joint injury / AE(s) Reported - Target knee, Joint stiffiiess / AE(s) Reported - Target knee, Joint swelling / AE(s) Reported - Target knee, Meniscus injury / DLT(s) Reported / SAE(s) Reported: single IA injection
# Protocol: A Phase 1 study was conducted to evaluate the safety and tolerability of the compound of Formula (I) (Form 1) administered by intra-articular injection into a target knee joint of moderate-to-severe symptomatic OA subjects.
# (§1) The study was a first-in-human, multicenter, 24-week, placebo-controlled, single-dose, dose-escalation safety study of a Wnt pathway inhibitor in subjects suffering from moderate to severe symptomatic knee OA. The sample size was 20 subjects (randomized 4:1, 16 active: 4 placebo) per dosing cohort. Inclusion criteria included: Age, 50-75 years; Western Ontario and McMaster Universities Arthritis Index (WOMAC) Total score, 36-72 (out of 96); Kellgren-Lawrence grade, 2 or 3; and a willingness to omit pain medication for 24 hours prior to pain assessments. Exclusion criteria included: BMI>40; and treatment with IA steroids within 2 months or HA derivatives within 6 months prior to injection. A full list of the inclusion and exclusion criteria for this study can be found on clinicaltrials.gov (NCT02095548).
# (§2) The dosing sequence included suspension compositions of either 0.03 mg, 0.07 mg, or 0.23 mg of the compound of Formula (I) (Form 1) per 2 mL injection in a vehicle containing 0.5% carboxymethylcellulose sodium and 0.05% polysorbate 80 in pH 7.4 phosphate buffered saline. The placebo contained only the diluent of 0.5% carboxymethylcellulose sodium and 0.05% polysorbate 80 in pH 7.4 phosphate buffered saline. The subjects were given a single, intra-articular injection in the target knee on Treatment Day 1 and participated in a follow-up period of 24 weeks.
# (§3) Safety, pharmacokinetics (PK), biomarker, and efficacy data were collected at baseline and during the 24-week follow-up period. Safety data included adverse events (AEs), concomitant medications, clinical laboratory sampling, medical history, vital signs, ECGs, hip bone density (DXA) analysis, qCT of the target knee, and evaluation of bone edema via MM. For PK data, samples were collected 0, 4, and 24 hours post dose, and at Weeks 4 and 12. Biomarker data included data for procollagen type 1 N-propeptide (P1NP), beta C-terminal telopeptide of type 1 collagen (βCTX), and cartilage oligomeric matrix protein (COMP). Efficacy data included measurements of WOMAC Total score, WOMAC Function and Pain subscores, pain VAS, Physician Global Assessment of Disease Activity, MM, and radiographs. Efficacy assessments were used to determine the percentage of OMERACT-OARSI “strict” responders. Exploratory analyses of efficacy outcomes were conducted using a baseline-adjusted repeated measures analysis of covariance (ANCOVA) in the Intention-to-Treat (ITT) population. The sponsor was unblinded after Week 12 for each cohort; site investigators remained blinded. All AEs reported in this study were […]. Investigator opinion regarding whether AEs were related to the compound of Formula (I) was also collected for informational purposes.
# [2] = test system: protease expression (MMP1, MMP3, MMP13); experiment: Inhibition of protease release (qRT-PCR, TNF-α + Oncostatin M stimulated chondrocytes); type: cell-based, human; details: 72 hours, FIGS. 19A-C
# Protocol: Human MSCs were plated in 10 cm dishes in chondrogenic induction medium (Lonza; DMEM, dexamethasone, ascorbate, insulin-transferrin-selenium [ITS supplement], gentamycin-amphotericin [GA-1000], sodium pyruvate, proline and L-glutamine) and treated with TGF-β3 (20 μg/mL) to induce chondrogenic differentiation. Cells from 4 dishes were pooled and re-plated in 24-well plates in Chondrogenic Induction Medium and treated with various concentrations of the compound of Formula (I). 4 hours later, MMP production was stimulated by adding TNF-α (20 μg/mL)+Oncostatin M (10 ng/mL) and cells were incubated at 37° C., 5% CO2 for 72 hours. Cells were then pelleted and washed, and total RNA was isolated and purified using RNeasy Plus Mini Kit (Qiagen). cDNA was synthesized from 1 μg of total RNA using QuantiTect Reverse Transcription kit (Qiagen). qRT-PCR was performed with QuantiTect SYBR Green PCR Kit (Qiagen) and gene-specific primers, using CFX384 thermal cycler (Biorad). Transcripts were quantitated by comparative Ct method, and normalized to endogenous controls, β-actin and GAPDH. Fold changes were normalized to unstimulated cells. […] FIG. 19A depicts MMP1 production. FIG. 19B depicts MMP3 production. FIG. 19C depicts MMP13 production.
# [3] = test system: moderate-to-severe symptomatic knee OA subjects; experiment: Phase 1 clinical study: efficacy (WOMAC, Physician Global Assessment, strict OARSI responders); type: in vivo, human; details: for decrease in median WOMAC total score from baseline: FIG. 24B; for decrease in mean WOMAC total score [0-96] from baseline: FIG. 24A
# Text: as §1, §2, §3
# Strict responders were classified by having either a WOMAC Function subscore improvement of ≥50% with a corresponding Function score improvement of ≥20 points (scaled to [0-100]), or a WOMAC Pain subscore improvement of ≥50% with a corresponding Pain score improvement of ≥20 points (scaled to [0-100]).
smiles,measurement,setting,value
CC(C)CC(=O)Nc1cncc(-c2ccc3[nH]nc(-c4nc5c(-c6cccc(F)c6)cncc5[nH]4)c3c2)c1 [compound of Formula (I)],Subjects Who Reported AE(s) [N(%)],[1]; 0.03 mg cohort,9 (53%) N(%)
same,Subjects Who Reported No AE(s) [N(%)],[1]; 0.03 mg cohort,8 (47%) N(%)
same,AE(s) Reported - All,[1]; 0.03 mg cohort,15
same,"AE(s) Reported - Target knee, Arthralgia",[1]; 0.03 mg cohort,1
same,"AE(s) Reported - Target knee, Injection site bruising",[1]; 0.03 mg cohort,0
same,"AE(s) Reported - Target knee, Injection site pain",[1]; 0.03 mg cohort,0
same,"AE(s) Reported - Target knee, Joint injury",[1]; 0.03 mg cohort,1
same,"AE(s) Reported - Target knee, Joint stiffiiess",[1]; 0.03 mg cohort,0
same,"AE(s) Reported - Target knee, Joint swelling",[1]; 0.03 mg cohort,0
same,"AE(s) Reported - Target knee, Meniscus injury",[1]; 0.03 mg cohort,0
same,DLT(s) Reported,[1]; 0.03 mg cohort,0
same,SAE(s) Reported,[1]; 0.03 mg cohort,0
same,Subjects Who Reported AE(s) [N(%)],[1]; 0.07 mg cohort,6 (37%) N(%)
same,Subjects Who Reported No AE(s) [N(%)],[1]; 0.07 mg cohort,10 (63%) N(%)
same,AE(s) Reported - All,[1]; 0.07 mg cohort,11
same,"AE(s) Reported - Target knee, Arthralgia",[1]; 0.07 mg cohort,1
same,"AE(s) Reported - Target knee, Injection site bruising",[1]; 0.07 mg cohort,0
same,"AE(s) Reported - Target knee, Injection site pain",[1]; 0.07 mg cohort,2
same,"AE(s) Reported - Target knee, Joint injury",[1]; 0.07 mg cohort,0
same,"AE(s) Reported - Target knee, Joint stiffiiess",[1]; 0.07 mg cohort,0
same,"AE(s) Reported - Target knee, Joint swelling",[1]; 0.07 mg cohort,1
same,"AE(s) Reported - Target knee, Meniscus injury",[1]; 0.07 mg cohort,0
same,DLT(s) Reported,"[1]; 0.07 mg cohort, increased target knee pain and paroxysmal tachycardia",2*
same,SAE(s) Reported,"[1]; 0.07 mg cohort, paroxysmal tachycardia",1*
same,Subjects Who Reported AE(s) [N(%)],[1]; 0.23 mg cohort,7 (44%) N(%)
same,Subjects Who Reported No AE(s) [N(%)],[1]; 0.23 mg cohort,9 (56%) N(%)
same,AE(s) Reported - All,[1]; 0.23 mg cohort,25
same,"AE(s) Reported - Target knee, Arthralgia",[1]; 0.23 mg cohort,1
same,"AE(s) Reported - Target knee, Injection site bruising",[1]; 0.23 mg cohort,1
same,"AE(s) Reported - Target knee, Injection site pain",[1]; 0.23 mg cohort,1
same,"AE(s) Reported - Target knee, Joint injury",[1]; 0.23 mg cohort,0
same,"AE(s) Reported - Target knee, Joint stiffiiess",[1]; 0.23 mg cohort,1
same,"AE(s) Reported - Target knee, Joint swelling",[1]; 0.23 mg cohort,1
same,"AE(s) Reported - Target knee, Meniscus injury",[1]; 0.23 mg cohort,1
same,DLT(s) Reported,[1]; 0.23 mg cohort,0
same,SAE(s) Reported,[1]; 0.23 mg cohort,0
same,AEs considered related to study medication by the reporting investigator,[1]; 16 of 77 AEs,22%
same,exposed subjects who reported no AEs,[1]; 27 of 49 exposed subjects,55%
same,overall safety and tolerability,"[1]; single IA injection of suspension formulated from Form 1, interim data","safe, well-tolerated"
same,"protease expression (MMP1, MMP3, MMP13)",[2],dose-dependent inhibition
same,"WOMAC function [0-68], Week 12 Actual [Mean (SD)]","[3]; 0.03 mg cohort, N 17",20.3
same,"WOMAC function [0-68], Week 12 Change from baseline [Mean (SD)]","[3]; 0.03 mg cohort, N 17",−18.4
same,"WOMAC pain [0-20], Week 12 Actual [Mean (SD)]","[3]; 0.03 mg cohort, N 17",6.3
same,"WOMAC pain [0-20], Week 12 Change from baseline [Mean (SD)]","[3]; 0.03 mg cohort, N 17",−4.4
same,decrease in median WOMAC total score from baseline,[3]; 0.03 mg cohort,greater than 25
same,median decrease in physician global assessment from baseline,"[3]; 0.03 mg cohort, FIG. 25B",about 48
same,"WOMAC function [0-68], Week 12 Actual [Mean (SD)]","[3]; 0.07 mg cohort, N 16",18.4
same,"WOMAC function [0-68], Week 12 Change from baseline [Mean (SD)]","[3]; 0.07 mg cohort, N 16",−19.2
same,"WOMAC pain [0-20], Week 12 Actual [Mean (SD)]","[3]; 0.07 mg cohort, N 16",5.3
same,"WOMAC pain [0-20], Week 12 Change from baseline [Mean (SD)]","[3]; 0.07 mg cohort, N 16",−5.6
same,decrease in mean WOMAC total score [0-96] from baseline,[3]; 0.07 mg cohort,about 27
same,decrease in median WOMAC total score from baseline,[3]; 0.07 mg cohort,greater than 25
same,odds ratio (OR) of strict OARSI response vs placebo,"[3]; 0.07 mg cohort, Week 12, P=0.081",4.2
same,percentage of strict OARSI responders,"[3]; 0.07 mg cohort, Week 12, placebo 42%",75%
same,"WOMAC function [0-68], Week 12 Actual [Mean (SD)]","[3]; 0.23 mg cohort, N 16",22.6
same,"WOMAC function [0-68], Week 12 Change from baseline [Mean (SD)]","[3]; 0.23 mg cohort, N 16",−17.8
same,"WOMAC pain [0-20], Week 12 Actual [Mean (SD)]","[3]; 0.23 mg cohort, N 16",5.8
same,"WOMAC pain [0-20], Week 12 Change from baseline [Mean (SD)]","[3]; 0.23 mg cohort, N 16",−5.7
same,decrease in mean WOMAC total score [0-96] from baseline,"[3]; all cohorts (0.03, 0.07, 0.23 mg)",≥ 23
same,decrease in mean physician global assessment score [0-100] from baseline,"[3]; all cohorts (0.03, 0.07, 0.23 mg), FIG. 25A",≥ 30

# From patent publication US10882860B2, “Treatment of osteoarthritis” (Samumed, LLC, priority 2015, dated 2021)
